For nine compounds, melting point results are on record in patent US7384943B2, “Substituted chroman derivatives” (AstraZeneca AB, priority 1997, dated 2008).

Structures are written as SMILES.

The term melting point denotes the temperature of the solid-liquid transition.

Take `CN1CCN(c2cccc3c2C[C@H](NC(=O)c2ccc(C(=O)N(C)C)cc2)CO3)CC1` [Example 46, (S)-N-[5-(4-Methylpiperazin-1-yl)-3,4-dihydro-2H-benzopyran-3-yl)-4-(N,N-dimethylaminocarbonyl)benzamide]: the melting point was 219 °C (dec.).
On to `CN1CCN(c2cccc3c2C[C@H](NC(=O)c2ccc(N4CCNCC4)cc2)CO3)CC1` [Example 43, (S)-N-[5-(4-Methylpiperazin-1-yl)-3,4 dihydro-2H-1-benzopyran-3-yl]-4-(piperazin-1-yl)benzamide], for which the melting point is above 102 °C.
On to `CN1CCN(c2cccc3c2C[C@H](NC(=O)c2ccc(N4CCNC(=O)CC4)cc2)CO3)CC1` [Example 35, (S)-N-[5-(4-Methylpiperazin-1-yl)-3,4-dihydro-2H-1-benzopyran-3-yl]-4-(hexa hydro-1,4-diazepin-5-on-1-yl)benzamide], for which the melting point was 244 to 247 °C (dec.).
For `CN1CCN(c2cccc3c2C[C@H](NC(=O)c2ccc(C(=O)N4CCOCC4)cc2)CO3)CC1` [Example 45, (S)-N-[5-(4-Methylpiperazin-1-yl)-3,4 dihydro-2H-1-benzopyran-3-yl)-4-(morpholinocarbonyl)benzamide], the melting point was 222 °C (dec.).
On to `CN1CCN(c2cccc3c2C[C@H](NC(=O)c2ccc(N4CCN(CCO)CC4)cc2)CO3)CC1` [Example 48, (S)-N-[5-(4-Methylpiperazin-1-yl)-3,4 dihydro-2H-1-benzopyran-3-yl]-4-[4-(2-hydroxyethyl)-piperazin-1-yl]benzamide], for which the melting point is 211 to 212 °C.
On to `CN1CCN(c2cccc3c2C[C@H](NC(=O)c2ccc(C(F)(F)F)cc2C(F)(F)F)CO3)CC1` [Example 28, (S)-N-[5-(4-Methylpiperazin-1-yl)-3,4-dihydro-2H-1-benzopyran-3-yl]-2,4-bis(trifluoromethyl)benzamide], for which the melting point lay within 202 to 203 °C.
Compound `CN1CCN(c2cccc3c2C[C@H](NC(=O)c2ccc(N4CCOCC4)cc2)CO3)CC1` [Example 14, (S)-N-[5-(4-Methylpiperazin-1-yl)-3,4-dihydro-2H-1-benzopyran-3-yl]-4-morpholinobenzamide] had a melting point of 210 to 212 °C.
Then `CN1CCN(c2cccc3c2C[C@H](NC(=O)c2ccc(C(F)(F)F)cc2)CO3)CC1` [Example 19, (S)-N-[5-(4-Methylpiperazin-1-yl)-3,4-dihydro-2H-1-benzopyran-3-yl]-4-trifluoromethylbenzamide], with 212 to 214 °C; and `CC(=O)N1CCN(c2ccc(C(=O)N[C@@H]3COc4cccc(N5CCN(C)CC5)c4C3)cc2)CC1` [Example 44, (S)-N-[5-(4-Methylpiperazin-1-yl)-3,4 dihydro-2H-1-benzopyran-3-yl]-4-(4-acetylpiperazin-1-yl)benzamide], with 88 °C (dec.).
